Test system: HeLa cell
Test: Cell penetration of pep(CPP)-FITC conjugates in HeLa cell line, flow cytometry (FACS)
Assay type: cell-based, Homo sapiens
Settings: HeLa cells, 20 μM of each carrier peptide combined with FITC, 37° C. for an hour, control cells treated only FITC
Description: Homo sapiens cervix adenocarcinoma cell line as HeLa cell lines were purchased from ATCC (American Type Cell Culture). The cells were cultured in MEM supplemented with 10% fetal bovine serum (Invitrogen, USA), Earle's salts, non-essential amino acids, sodium pyruvate and 100 μg/ml penicillin and 10 units/ml streptomycin and cultured at 37° C., 5% CO2 incubator.
Flow cytometry and Confocal microscope analysis were performed to compare the between degree of cellular uptake of the cells were treated with SEQ ID NO: 1 to SEQ ID NO: 156, pep (CPP) and control.
The cell line was divided in a 6-well plate and cultured in a medium containing 10% fetal bovine serum (Invitrogen, USA), […] at 37° C., 5% CO2 incubator for 12 hours. After washing the cell line with PBS, starvation was induced in a Minimum Essential Medium for an hour. 20 μM of each carrier peptide was treated and cultured at 37° C. for an hour. After repeating the step of washing the cells with PBS for three times, Trypsin-EDTA was treated form 10 mins at 37° C. to separate the carrier peptide on the outside of the cell. cells were collected with refrigerated PBS and centrifugation was performed to repeat the step of washing the cells for three times. After then, the cells were suspended in 0.5 ml of PBS containing 4% Paraformaldehyde and fluorescence of the cells was analyzed using FACS Calibur (Becton Dickinson). The cellular uptake aspect of control and various peptides combined with FITC was compared and analyzed by MFI (Mean Fluorescence Intensity).
Analysis results shown in FIG. 1 to FIG. 23 are given in detail in Table 3 below.

| Sequence | cellular uptake, MFI (Mean Fluorescence Intensity) |
| --- | --- |
| SVLGLDDIHR (listed as Homo sapiens) [pep17] | 15.26 ± 2.23 |
| FVLRVRAQDPPPELY (listed as Homo sapiens) [pep46] | 24.67 ± 2.02 |
| RLTSRVKAL (listed as Homo sapiens) [pep7] | 9.51 ± 2.95 |
| SVLGLDDIH (listed as Homo sapiens) [pep31] | 14.93 ± 2.05 |
| PQDRLTEVIASIIKP (listed as Homo sapiens) [pep47] | 15.85 ± 1.03 |
| SRPPRPWDTPCPPVYAETKH (listed as Homo sapiens) [pep123] | 18.03 ± 2.83 |
| GLLGASVLG (listed as Homo sapiens) [pep30] | 14.37 ± 1.73 |
| THCPLRAAVTPAAGVCAREK (listed as Homo sapiens) [pep128] | 14.36 ± 1.21 |
| ALLTSRLRFI (listed as Homo sapiens) [pep5] | 19.06 ± 1.33 |
| AQCPYGVLLKTHCPLRAAVT (listed as Homo sapiens) [pep70] | 21.82 ± 1.76 |
| RRPGLLGASVLGLDDIHRAW (listed as Homo sapiens) [pep141] | 20.89 ± 0.31 |
| WSKLQSIGIRQHLKRVQLRE (listed as Homo sapiens) [pep79] | 31.2 ± 1.52 |
| QETSPLRDAVVIEQSSSLNE (listed as Homo sapiens) [pep89] | 13.54 ± 0.75 |
| VARVLQRLCERGAKNVLAFG (listed as Homo sapiens) [pep54] | 388.45 ± 2.94 |
| KTFLRTLVRGVPEYGCVVNL (listed as Homo sapiens) [pep94] | 117.76 ± 4.24 |
| EARPALLTSRLRFIPKPDGL (listed as Homo sapiens) [pep138] | 16.43 ± 0.91 |
| ALFSVLNYE (listed as Homo sapiens) [pep29] | 33.5 ± 2.48 |
| DEALGGTAFVQMPAHGLFPW (listed as Homo sapiens) [pep153] | 31.72 ± 1.74 |
| GLLGASVL (listed as Homo sapiens) [pep34] | 14.41 ± 3.44 |
| VRRYAVVQKAAHGEVRKAFK (VRRYAVVQKAAHGHVRKAFK; listed as Homo sapiens) [pep87] | 38.35 ± 2.27 |
| LDDIHRAWRTFVLRV (listed as Homo sapiens) [pep45] | 203.77 ± 3.26 |
| RPALLTSRL (listed as Homo sapiens) [pep6] | 15.81 ± 1.59 |
| PPEAFTTSVRSYLPNTVTDA (listed as Homo sapiens) [pep113] | 16.09 ± 2.5 |
| KLTRHRVTYVPLLGSLRTAQ (listed as Homo sapiens) [pep104] | 36.74 ± 1.11 |

| Sequence | cellular uptake, MFI (Mean Fluorescence Intensity) |
| --- | --- |
| RQHHAGPPSTSRPPRPWDTP (listed as Homo sapiens) [pep65] | 12.72 ± 1.36 |
| SVLNYERARR (listed as Homo sapiens) [pep16] | 20.12 ± 1.84 |
| AAGPLPSEAVQWLCHQAFLL (listed as Homo sapiens) [pep103] | 126.88 ± 2.14 |
| LFFYRKSVWSKLQSI [pep38] | 380.4 ± 2.6 |
| ATQARPPPHASGPRRRLGCE (listed as Homo sapiens) [pep59] | 18.58 ± 0.52 |
| LRRVGDDVLVHLIARCALFV (LRRVGDDVLVHLLARCALFV; listed as Homo sapiens) [pep57] | 568.02 ± 3.01 |
| GAAPEPERTPVGQGSWAHPG (listed as Homo sapiens) [pep62] | 14.55 ± 3.71 |
| LRFIPKPDGLRPIVNMDYVV (listed as Homo sapiens) [pep81] | 29.69 ± 2.49 |
| SLCYSILKAKNAGMSLGAKG (listed as Homo sapiens) [pep102] | 45.84 ± 1.58 |
| CPPVYAETKHFLYSSGDKEQ (listed as Homo sapiens) [pep66] | 20.7 ± 2.57 |
| RRPGLLGAS (listed as Homo sapiens) [pep28] | 14.08 ± 3.11 |
| LGASVLGL (listed as Homo sapiens) [pep36] | 15.37 ± 2.65 |
| RTFRREKRAERLTSR (listed as Homo sapiens) [pep43] | 29.88 ± 2.35 |
| PGLLGASVL (listed as Homo sapiens) [pep27] | 9.89 ± 2.51 |
| RPGLLGASVL (listed as Homo sapiens) [pep21] | 13.22 ± 1.67 |
| DARPPPAAPSFRQVSCLKEL (listed as Homo sapiens) [pep53] | 16.16 ± 0.66 |
| RFHACVLQLPFHQQVWKNPT (listed as Homo sapiens) [pep158] | 87.75 ± 2.51 |
| GLLGASVLGL (listed as Homo sapiens) [pep4] | 28.35 ± 2.54 |
| AERLTSRVKALFSVL (listed as Homo sapiens) [pep10] | 559.78 ± 3.41 |
| RGKSYVQCQGIPQGSILSTL (listed as Homo sapiens) [pep91] | 24.41 ± 2.79 |
| ERARRPGLL (listed as Homo sapiens) [pep22] | 13.56 ± 0.23 |
| SVLNYERAR (listed as Homo sapiens) [pep24] | 13.78 ± 1.07 |
| VETIFLGSRPWMPGTPRRLP (listed as Homo sapiens) [pep68] | 27.28 ± 1.28 |
| PYMRQFVAHLQETSPLRDAV (listed as Homo sapiens) [pep146] | 18.32 ± 1.82 |

| Sequence | cellular uptake, MFI (Mean Fluorescence Intensity) |
| --- | --- |
| LFSVLNYERARRPGLLGASV (listed as Homo sapiens) [pep83] | 24.57 ± 1.36 |
| LGPQGWRLVQRGDPAAFRAL (listed as Homo sapiens) [pep109] | 12.46 ± 1.32 |
| GARTFRREKRAERLTSRVKA (listed as Homo sapiens) [pep82] | 22.44 ± 3.32 |
| MPRAPRCRAV (listed as Homo sapiens) [pep107] | 23.11 ± 0.56 |
| SYLPNTVTDALRGSGAWGLL (listed as Homo sapiens) [pep56] | 28.61 ± 0.44 |
| KMSVRDCAWLRRSPGVGCVP (listed as Homo sapiens) [pep133] | 46.79 ± 1.92 |
| VTETTFQKNRLFFYR (listed as Homo sapiens) [pep37] | 20.81 ± 1.02 |
| GASVLGLDDI (listed as Homo sapiens) [pep14] | 10.51 ± 3.71 |
| RSLLRSHYREVLPLATFVRR (listed as Homo sapiens) [pep108] | 22.53 ± 0.95 |
| FSVLNYERAR (listed as Homo sapiens) [pep18] | 18.7 ± 1.21 |
| VLNYERARR (listed as Homo sapiens) [pep25] | 18.62 ± 0.69 |
| VLPLATFVRRLGPQGWRLVQ (listed as Homo sapiens) [pep51] | 59.81 ± 1.38 |
| RTRGPSDRGFCVVSPARPAE (listed as Homo sapiens) [pep63] | 21.3 ± 1.55 |
| NKLFAGIRRDGLLLRLVDDF (listed as Homo sapiens) [pep150] | 17.46 ± 0.24 |
| NYERARRPGL (listed as Homo sapiens) [pep19] | 13.04 ± 3.41 |
| SVLNYERARRPGLLG (listed as Homo sapiens) [pep3] | 18.23 ± 3.21 |
| FLYSSGDKEQLRPSFLLSSL (listed as Homo sapiens) [pep124] | 23.74 ± 3.62 |
| VLGLDDIHR (listed as Homo sapiens) [pep23] | 15.68 ± 2.03 |
| LLVTPHLTHAKTFLRLTVRG (LLVTPHLTHAKTFLRTLVRG; listed as Homo sapiens) [pep151] | 23.52 ± 0.56 |
| SLPLPKRPRRGAAPEPERTP (listed as Homo sapiens) [pep119] | 13.23 ± 0.64 |
| EAEVRQHREARPALL (listed as Homo sapiens) [pep40] | 11.63 ± 1.11 |
| YERARRPGL (listed as Homo sapiens) [pep11] | 10.46 ± 1.99 |
| VAQCLVCVPWDARPPPAAPS (listed as Homo sapiens) [pep110] | 22.04 ± 0.77 |

Source: patent publication US11773381B2, “Cell penetrating peptide, conjugate comprising same, and composition comprising conjugate” (GemVax & KAEL CO., LTD., priority 2012, dated 2023)
